This note sets out measurements from patent US20110257225A1, “CYCLOHEXYLAMINE DERIVATIVE CONTAINING PHENYL GROUP, AND THERAPEUTIC AGENT FOR DISEASES ACCOMPANIED BY CENTRAL NERVOUS SYSTEM DISORDERS” (M'S Science Corporation, priority 2008, published 2011).

The pKi is −log10 of the Ki, conventionally taken in molar units. Low readings indicate a large Ki, high ones a small Ki. By inhibition is commonly meant how much of the control response was suppressed. One may read the pIC50 as −log10 of the IC50, conventionally taken in molar units. Read a high pIC50 as a low IC50.

Experiment [1] concerns the target T1, sigma receptor (Cavia porcellus, UniProt Q60492).
T1 construct: A membrane preparation as a sigma receptor obtained from the whole brain of guinea pigs; from tissue; host or cells: guinea pig whole brain membrane preparation
In words: Evaluation of affinity to sigma receptors ([3H](+)-pentazocine receptor binding, whole-brain membrane preparation). Also noted: species or system guinea pig. Conditions: for pKi: Ki from Dixon plot; for inhibition at 1 µM: compound concentration 1 × 10^−6 mol/L; for inhibition at 1 µM / inhibition at 0.1 µM / inhibition at 0.01 µM / inhibition at 0.001 µM / inhibition at 0.0001 µM / inhibition at 10 pM: [3H](+)-pentazocine, 25° C., 60 minutes, read-out: Inhibition rate (%); for inhibition at 0.1 µM: compound concentration 1 × 10^−7 mol/L; for inhibition at 0.01 µM: compound concentration 1 × 10^−8 mol/L; for inhibition at 0.001 µM: compound concentration 1 × 10^−9 mol/L; for inhibition at 0.0001 µM: compound concentration 1 × 10^−10 mol/L; for inhibition at 10 pM: compound concentration 1 × 10^−11 mol/L; for pIC50: from logit-log regression of the dose-response curve. As to the method:
The following measurement of radioactivity was performed according to a usual method after the binding reaction had been carried out at 25° C. for 60 minutes.
The inhibition rate was determined by the equation of “100−binding rate”. The binding rate is represented by the following equation:
The IC50 of the test substance was calculated from a regression equation to the dose-response curve. That is to say, the ratio y=(B−N)/(B0−N) wherein a value of (B−N) is a specific binding radioactivity in the presence of a test substance, and a value of (B0−N) is a specific binding radioactivity in the absence of a test substance was first subjected to logit conversion and applied to a logit-log model plotted against the common logarithm of the test substance concentration to create a dose-response curve. […] The regression equation to the dose-response curve used is as follows: […]
Then, for each concentration of the positive substances, the reaction rate was measured while changing the concentration of the test substance in a range including the IC50 to create the Dixon plot, and the Ki value was calculated from the test substance concentration giving an intersection of these straight lines.

For experiment [2], the system named is rat cerebral cortex neural cells. As to the kind of experiment: Evaluation of neurite outgrowth-promoting activity in central neural cells. The experiment is classed as cell-based. Conditions: 48 hours after addition, mean±standard error, control 18.0 ± 1.6. The method, then:
The neurite outgrowth-promoting effects of the rat cerebral cortex neural cells on test substances were evaluated by the following method. The cerebral cortex neural cells were isolated from Wistar rats on the 18th day of pregnancy according to the method of Springer Neuroscience Lab Manual. That is to say, under ether anesthesia, a fetal rat was removed from the uterus of a pregnant rat on day 18, and transferred into a petri dish containing HBSS (manufactured by Gibco, Inc.) on ice. The cerebral cortex was cut out under a stereoscopic microscope. The cerebral cortex that had been cut out was dispersed with a neural cells dispersion solution (manufactured by Sumitomo Bakelite Co., Ltd.) to prepare rat cerebral cortex cells.
The resulting cerebral cortex cells were subjected to cell culture. Neurobasal medium (manufactured by Gibco, Inc.) supplemented with B27 Supplement (manufactured by Gibco, Inc.; Fin. 2% v/v), L-glutamine (manufactured by IBCO company; Fin. 0.5 mM) and GlutaMax I (manufactured by Gibco, Inc.; Fin. 0.5 mM) was used as the culture medium. The culture conditions were as follows: 5% CO2, 95% air, 100% humidity, and 37° C. The cells were inoculated to polylysine-coated 8-well slides (manufactured by IWAKI company) so as to have about 2×10^4 cells/well.
Compound [2], compound [3], compound [4], compound [5], compound [6], compound [7], compound [8], compound [9], compound [10], compound [11], and compound [12] (final•concentrations: 0.3 μM and 1.0 μM) were added as respective test substances to the culture solution at about 3 hours after the cell inoculation, and the culture solution with no additives was used as a control.
At 48 hours after the addition of the compounds, the cells were fixed by treatment with 4% paraformaldehyde (manufactured by Wako Pure Chemical Industries) at room temperature for about 30 minutes, and incubated with an anti-α-Tublin antibody (Anti-α-Tubulin Alexa Fluor 488 conjugate) recognizing a microtubule protein, at room temperature for one hour. After washing, the nucleus of the whole cell was stained with a nucleic acid-staining agent DAPI. The cells were observed under a fluorescence microscope at a magnification of 20 times. The stained cell image and the nuclear staining image in the same field of vision were imported into a computer as the image. Using an image analysis software (MethaMorph (registered trademark), Molecular Devises), the image imported into the computer was used to measure the “longest neurite length” that was the length of the longest neurite of individual cell in each field of vision. A cell having a length of the “longest neurite length” of 60 μm or more was defined as a “neurite forming cell” and the neurite forming activity was evaluated by the ratio of the “neurite forming cell” occupied in the number of the cells in the same field of vision. In other words, evaluation was performed by determining the rate of the neurite forming cells using the following equation:
Rate of neurite forming cells=[Number of neurite forming cells/Number of total cells in the same field of vision]×100

Experiment [3] shares this test system. The description is as above. The settings on record: cultured for 48 hours. The class given is cell-based.

Structures are written as SMILES. pIC50, pKi: −log10 of the molar value.

T1 sequence (Q60492 whole entry): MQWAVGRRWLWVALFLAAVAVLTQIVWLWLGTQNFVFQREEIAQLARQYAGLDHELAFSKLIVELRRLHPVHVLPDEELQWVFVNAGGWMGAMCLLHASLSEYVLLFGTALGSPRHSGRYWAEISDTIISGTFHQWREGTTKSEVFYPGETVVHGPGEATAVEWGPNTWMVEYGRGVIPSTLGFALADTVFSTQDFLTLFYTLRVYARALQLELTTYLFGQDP

In experiment [1], `CCN(CCSc1ccccc1)C1CCCCC1` [Compound [2], N-(2-(phenylthio)ethyl)-N-ethylcyclohexylamine] had a negative logarithm of the Ki (pKi) of 9.00. In addition, the results for the “Neurite outgrowth-promoting activity (%) (rate of neurite forming cells, longest neurite 60 μm or more)” value (shortened to “Neurite outgrowth-promoting activity (%)”) in experiment [2] (0.3 μM) and in experiment [2] (1.0 μM) were 37.4 ± 3.5% and 50.6 ± 1.4%, respectively. Further, the “ratio of cells extending dendrites compared with no additives (FIG. 1)” value in experiment [3] (final concentration 1 μM) was “obviously higher than that of the case of no additives”. In addition, the “ratio of cells having neurites having the length two or more times the cell body diameter (FIG. 2)” value in experiment [3] (final concentrations 0.1 μM, 1 μM, 10 μM) is “significantly increased”.

For the molecule `c1ccc(SCCN2CCCC3CCCCC32)cc1` (stereo not shown) [Compound [3], N-(2-phenylthio)ethyldecahydroquinoline], in experiment [1], the negative-log Ki (pKi) was 8.80, the inhibition at 1 µM turned out to be 99.9%, the inhibition at 0.1 µM came to 100% and the inhibition at 0.01 µM is 90.4%. Moreover, in experiment [1], the inhibition at 0.001 µM was determined as 46.8%, the inhibition at 0.0001 µM came to 6.31%, the inhibition at 10 pM was found to be 2.84% and the pIC50 is 8.92. In addition, in experiment [2] (0.3 μM), the “Neurite outgrowth-promoting activity (%)” value turned out to be 32.8 ± 5.3%. Moreover, the “Neurite outgrowth-promoting activity (%)” value in experiment [2] (1.0 μM) turned out to be 52.6 ± 1.2%.

Turning to `CCN(CCSc1cccc(C(F)(F)F)c1)C1CCCCC1` [Compound [4], N-[2-(3-trifluoromethyl)phenylthio]ethyl-N-ethylcyclohexylamine], in experiment [1], the pKi was 9.10, the inhibition at 1 µM worked out at 100%, the inhibition at 0.1 µM stood at 100% and the inhibition at 0.01 µM turned out to be 99.7%. In experiment [1], the inhibition at 0.001 µM turned out to be 95.2%, the inhibition at 0.0001 µM turned out to be 23.5%, the inhibition at 10 pM was determined as 10.4% and the negative-log IC50 (pIC50) is 9.72. The “Neurite outgrowth-promoting activity (%)” value in experiment [2] (0.3 μM) worked out at 21.4 ± 2.2%. For the same molecule, the “Neurite outgrowth-promoting activity (%)” value in experiment [2] (1.0 μM) is 39.4 ± 2.5%.

`CCN(CCSc1cccc(C(F)F)c1)C1CCCCC1` [Compound [5], N-[2-(3-difluoromethyl)phenylthio]ethyl-N-ethylcyclohexylamine]: in experiment [1], the inhibition at 1 µM was 97.5%, the inhibition at 0.1 µM was determined as 99.2%, the inhibition at 0.01 µM worked out at 98.6% and the inhibition at 0.001 µM was 92.8%. Besides, in experiment [1], the inhibition at 0.0001 µM was found to be 20.8%, the inhibition at 10 pM came out at 1.25% and the pIC50 was 9.65. Also, in experiment [2] (0.3 μM), the “Neurite outgrowth-promoting activity (%)” value is on record as 41.6 ± 3.3%. Besides, the “Neurite outgrowth-promoting activity (%)” value in experiment [2] (1.0 μM) amounted to 50.8 ± 2.8%.

On to `CCN(CCSc1ccc(OC)c(OC)c1)C1CCCCC1` [Compound [6], N-[2-(3,4-dimethoxy)phenylthio]ethyl-N-ethylcyclohexylamine], for which, in experiment [1], the pKi is 8.43, the inhibition at 1 µM was found to be 99.9%, the inhibition at 0.1 µM was 99.1% and the inhibition at 0.01 µM came out at 98.1%. In addition, in experiment [1], the inhibition at 0.001 µM was 86.6%, the inhibition at 0.0001 µM is 19.9%, the inhibition at 10 pM stood at 1.75% and the negative logarithm of the IC50 (pIC50) is 9.57. In addition, the “Neurite outgrowth-promoting activity (%)” value in experiment [2] (1.0 μM) is on record as 40.3 ± 3.4%.

With `CCN(CCSc1ccc(F)cc1)C1CCCCC1` [Compound [7], N-[2-(4-fluorophenylthio)ethyl]-N-ethylcyclohexylamine], in experiment [1], the pKi was 9.10, the inhibition at 1 µM came to 97.3%, the inhibition at 0.1 µM was 96.3% and the inhibition at 0.01 µM was 90%. In addition, in experiment [1], the inhibition at 0.001 µM was determined as 44.5%, the inhibition at 0.0001 µM is 3.43%, the inhibition at 10 pM turned out to be 0% and the pIC50 is 8.91. Moreover, in experiment [2] (0.3 μM), the “Neurite outgrowth-promoting activity (%)” value is recorded as 30.2 ± 2.5%. Moreover, the “Neurite outgrowth-promoting activity (%)” value in experiment [2] (1.0 μM) came to 53.3 ± 1.4%.

Consider `CCN(CCCc1ccccc1)C1CCCCC1` [Compound [8], N-(3-phenylpropyl)-N-ethylcyclohexylamine], for which the pKi in experiment [1] is 8.06. Further, the entries for the “Neurite outgrowth-promoting activity (%)” value in experiment [2] (0.3 μM) and in experiment [2] (1.0 μM) were 59.9 ± 1.8% and 61.7 ± 2.0%, respectively.

In experiment [1], `CCN(CCCc1ccc(OC)cc1)C1CCCCC1` [Compound [9], N-[3-(4-methoxyphenyl)propyl]-N-ethylcyclohexylamine] showed a negative logarithm of the Ki (pKi) of 7.98. The “Neurite outgrowth-promoting activity (%)” value in experiment [2] (0.3 μM) was 31.4 ± 5.8%; in experiment [2] (1.0 μM) it was 59.6 ± 1.0%.

Regarding `CCN(CCCc1ccc(F)cc1)C1CCCCC1` [Compound [10], N-[3-(4-fluorophenyl)propyl]-N-ethylcyclohexylamine], the pKi in experiment [1] is 8.07. Moreover, the figures for the “Neurite outgrowth-promoting activity (%)” value in experiment [2] (0.3 μM) and in experiment [2] (1.0 μM) were 26.8 ± 1.1% and 57.0 ± 3.0%, respectively.

Consider `CCN(CCOc1ccc(F)cc1)C1CCCCC1` [Compound [11], N-ethyl-N-[2-(4-fluorophenoxy)ethyl]cyclohexylamine], for which, in experiment [1], the pKi was 8.62. For the same molecule, the “Neurite outgrowth-promoting activity (%)” value in experiment [2] (0.3 μM) came to 43.5 ± 2.4%; in experiment [2] (1.0 μM), 50.7 ± 2.2%.

`CCN(CCOc1ccccc1)C1CCCCC1` [Compound [12], N-ethyl-N-(2-phenoxyethyl)cyclohexylamine] had a negative-log Ki (pKi) in experiment [1] of 8.18. Besides, the results for the “Neurite outgrowth-promoting activity (%)” value in experiment [2] (0.3 μM) and in experiment [2] (1.0 μM) were 44.2 ± 1.4% and 32.2 ± 1.0%, respectively.

Regarding `COc1ccc(CCN2CCN(CCCc3ccccc3)CC2)cc1OC` [Reference compound, SA4503, reference compound], the figures for the “Neurite outgrowth-promoting activity (%)” value in experiment [2] (0.3 μM) and in experiment [2] (1.0 μM) were 44.6 ± 2.2% and 58.4 ± 1.8%, respectively.
